Test results from the OligoGym collection.
After the bases stand the sugars from the 5' end (letter, count) and the backbone: PS all phosphorothioate, else s phosphorothioate and o phosphodiester by linkage. Methylation of C is not given here. e = 2'-O-(2-methoxyethyl) (MOE); k = constrained ethyl (cEt); d = 2'-deoxy (DNA); m = 2'-O-methyl

Target: HSD17B13
Details: ASO, HepaRG

Sequence	target mRNA inhibition (1 µM) [%]	also measured
ATTTAGAAACTGCTCC (sugars k3 d10 k3, PS)	21	–
TAGGAAAGCTCATGGT (sugars k3 d10 k3, PS)	27	–
AATAGTCTTCAGCAAA (sugars k3 d10 k3, PS)	48	–
TTATTATGAGGATCTG (sugars k3 d10 k3, PS)	50	–
CTAATCTCAGTACTCC (sugars k3 d10 k3, PS)	53	–
AATTTCATACAGTTCG (sugars k3 d10 k3, PS)	66	–
TAATCTTGTGCTTGGA (sugars k3 d10 k3, PS)	54	–
ACATATGTGAAGAGCT (sugars k3 d10 k3, PS)	66	–
CTAAACCCTGGAGCAG (sugars k3 d10 k3, PS)	42	–
GTAAUAGCCAGTACAG (sugars k3 d1 m1 d8 k3, PS)	62	–
GAATGCTACTTGAACA (sugars k3 d10 k3, PS)	44	–
GAACAGTCTTAAACCT (sugars k3 d9 k3 e1, PS)	64	–
TATTAATATGACTTGC (sugars k3 d10 k3, PS)	25	–
ATAGGAGAGTCTTTCA (sugars k3 d10 k3, PS)	77	–
CGGCCTATTCTTCTGT (sugars k3 d10 k3, PS)	25	–
AGTAGTGTAAGCTGAG (sugars k3 d9 k3 e1, PS)	71	–
GTTGATATTCTGTGGC (sugars k3 d10 k3, PS)	80	target mRNA inhibition (0.02 µM): 23%; target mRNA inhibition (0.078 µM): 42%; target mRNA inhibition (0.313 µM): 53%; target mRNA inhibition (1.25 µM): 87%; target mRNA inhibition (5 µM): 93%
CACTAATTTAGTCAAC (sugars k3 d10 k3, PS)	7	–
TTGAACAGTCTTAAAC (sugars k3 d10 k3, PS)	33	–
TAAGTAGTCTGCCTGC (sugars k3 d10 k3, PS)	19	–
GGATGTTGACCTCAAA (sugars k3 d10 k3, PS)	5	–
CTGTCATAAAGGTGGG (sugars k3 d10 k3, PS)	59	–
CCTATATACATCCAAG (sugars kkdddddddddkekek, PS)	61	–
TAGGATTAATCATGGG (sugars k3 d10 k3, PS)	47	–

Sequence	target mRNA inhibition (1 µM) [%]	also measured
TAGAATAGTCTTCAGC (sugars k3 d9 k3 e1, PS)	50	–
CGTAACCATGCATTAA (sugars k3 d10 k3, PS)	68	–
AGAAUAGAGTTGCACC (sugars k3 d1 m1 d8 k3, PS)	49	–
GCTTTGCAGCATTGAT (sugars k3 d10 k3, PS)	61	–
CTTCTATTGTATGAGG (sugars k3 d10 k3, PS)	40	–
ATATACTGTCCCAGCA (sugars k3 d10 k3, PS)	43	–
CCGTTTTGGGCTAATG (sugars kkdddddddddkekek, PS)	72	target mRNA inhibition (0.02 µM): 0%; target mRNA inhibition (0.078 µM): 4%; target mRNA inhibition (0.313 µM): 36%; target mRNA inhibition (1.25 µM): 52%; target mRNA inhibition (5 µM): 78%
AAGATTAGTCTTGATG (sugars k3 d10 k3, PS)	25	–
TTGAGTAGTGTAAGCT (sugars kkdddddddddkekek, PS)	29	–
CTGCATTAATGCCACC (sugars k3 d9 k3 e1, PS)	40	–
GTAGCTTTTGTCCACC (sugars kkdddddddddkekek, PS)	34	–
TGCCAAACCAATGTTT (sugars k3 d1 m1 d8 k3, PS)	35	–
TTGAGTAGTGTAAGCT (sugars k3 d10 k3, PS)	52	–
TCTTATGTAATAGCCA (sugars kkdddddddddkekek, PS)	65	–
GTGCATCTTAAGATAC (sugars k3 d9 k3 e1, PS)	29	–
TCAAAGTCAGTATCCC (sugars k3 d10 k3, PS)	79	target mRNA inhibition (0.02 µM): 5%; target mRNA inhibition (0.078 µM): 19%; target mRNA inhibition (0.313 µM): 48%; target mRNA inhibition (1.25 µM): 75%; target mRNA inhibition (5 µM): 88%
ATTGGAATGCTACTTG (sugars k3 d10 k3, PS)	53	–
TCTTGACAATGGTTGA (sugars k3 d1 m1 d8 k3, PS)	56	–
ATGTCCAGGTTGAGAT (sugars k3 d10 k3, PS)	55	–
TCATTCGAATTTCTTC (sugars k3 d10 k3, PS)	76	target mRNA inhibition (0.02 µM): 16%; target mRNA inhibition (0.078 µM): 31%; target mRNA inhibition (0.313 µM): 54%; target mRNA inhibition (1.25 µM): 79%; target mRNA inhibition (5 µM): 90%
ACTACAAGAGGTTATT (sugars kkdddddddddkekek, PS)	42	–
TGCCCCGAATTATTTC (sugars k3 d10 k3, PS)	3	–
TGGCTTAATGTTCAGT (sugars k3 d10 k3, PS)	50	–
TAAGATACCCAGGTTG (sugars k3 d1 m1 d8 k3, PS)	11	–

Sequence	target mRNA inhibition (1 µM) [%]	also measured
ATAATTACAACCTGGT (sugars k3 d10 k3, PS)	44	–
GCATCAAGACATTCTA (sugars k3 d10 k3, PS)	72	–
CTCAGGCTGTAAGAGT (sugars kkdddddddddkekek, PS)	10	–
ACATTGCAGTTATTAG (sugars kkdddddddddkekek, PS)	46	–
GCTCCATAATAATAGC (sugars k3 d10 k3, PS)	21	–
ACATTAGCAAGCTAAG (sugars k3 d10 k3, PS)	52	–
AGTTAGCAGCTAAAAT (sugars k3 d10 k3, PS)	33	–
AATCCCAACCAAACTT (sugars kkdddddddddkekek, PS)	17	–
TTGATATTCTGTGGCA (sugars k3 d9 k3 e1, PS)	76	target mRNA inhibition (0.02 µM): 0%; target mRNA inhibition (0.078 µM): 0%; target mRNA inhibition (0.313 µM): 25%; target mRNA inhibition (1.25 µM): 51%; target mRNA inhibition (5 µM): 55%
AACCTTTGTTGCCTGG (sugars k3 d10 k3, PS)	36	–
TGATTTTGACCTTACC (sugars k3 d10 k3, PS)	11	–
TAAAAAATTGGTTTCG (sugars k3 d10 k3, PS)	22	–
CGATCCTATATACATC (sugars k3 d9 k3 e1, PS)	29	–
ATATCCAGTAGGTGTG (sugars k3 d10 k3, PS)	55	–
ATAGTAATCACAAGTA (sugars k3 d10 k3, PS)	56	–
CGATCCTATATACATC (sugars k3 d10 k3, PS)	33	–
CTGGAACAATATGGGA (sugars k3 d9 k3 e1, PS)	36	–
GTTTTGCAAGTTTATC (sugars k3 d10 k3, PS)	73	–
TGTGAGAAGGCGGTAT (sugars k3 d10 k3, PS)	20	–
ACTAATATTGAGGCAC (sugars k3 d9 k3 e1, PS)	62	–
TTCAGTCCTTGTGTAG (sugars k3 d10 k3, PS)	45	–
ATTTAGAGAGCGATAG (sugars k3 d10 k3, PS)	14	–
CTAAAGGAGATCTGAG (sugars k3 d10 k3, PS)	47	–
GTATAGCTGCATTTCT (sugars k3 d10 k3, PS)	35	–

Sequence	target mRNA inhibition (1 µM) [%]	also measured
CTCTTAGCTGTGCACT (sugars k3 d9 k3 e1, PS)	66	target mRNA inhibition (0.02 µM): 0%; target mRNA inhibition (0.078 µM): 20%; target mRNA inhibition (0.313 µM): 0%; target mRNA inhibition (1.25 µM): 39%; target mRNA inhibition (5 µM): 79%
TATCAAAATGGTGGCG (sugars k3 d10 k3, PS)	18	–
ACAGAACCAATATGCT (sugars k3 d10 k3, PS)	40	–
ATTTGCTGCATTAATG (sugars k3 d10 k3, PS)	20	–
TAAGCTGAGAGTTCTA (sugars k3 d1 m1 d8 k3, PS)	27	–
CTGAAAAGCCCTATTC (sugars k3 d10 k3, PS)	11	–
TAGTTTTCGGCACTCA (sugars k3 d10 k3, PS)	35	–
GAGATTACCCCTGGCT (sugars k3 d10 k3, PS)	72	–
TAGTCTTGATGTAGTG (sugars k3 d10 k3, PS)	55	–
CAACGCAACAGTTTAG (sugars k3 d10 k3, PS)	52	–
AGCATATTCATTTGGC (sugars k3 d10 k3, PS)	61	–
AGATAAAGCTGCCTGC (sugars kkdddddddddkekek, PS)	30	–
ATGATTGAATTCACTA (sugars k3 d10 k3, PS)	33	–
TCTGTGGCATGGCTAC (sugars k3 d10 k3, PS)	67	–
ATCATCGATGGAAGAA (sugars k3 d10 k3, PS)	30	–
TTGCACCGTTTTGGGC (sugars k3 d10 k3, PS)	45	–
TGGGAAATTGTTGCTG (sugars k3 d10 k3, PS)	38	–
CTGCATTAATGCCACC (sugars kkdddddddddkekek, PS)	6	–
GTTATTGTAGGGATTG (sugars k3 d10 k3, PS)	69	–
TAGAATTAAGGGCTAT (sugars k3 d10 k3, PS)	31	–
GTATAGTATTCTTCAC (sugars k3 d10 k3, PS)	81	target mRNA inhibition (0.02 µM): 15%; target mRNA inhibition (0.078 µM): 4%; target mRNA inhibition (0.313 µM): 29%; target mRNA inhibition (1.25 µM): 61%; target mRNA inhibition (5 µM): 86%
GTGTAAGCTGAGAGTT (sugars kkdddddddddkekek, PS)	57	–
CTAAGTTATTATCCCC (sugars k3 d10 k3, PS)	70	target mRNA inhibition (0.02 µM): 16%; target mRNA inhibition (0.078 µM): 22%; target mRNA inhibition (0.313 µM): 48%; target mRNA inhibition (1.25 µM): 72%; target mRNA inhibition (5 µM): 95%
GGATAGTGAACATACA (sugars k3 d10 k3, PS)	62	–
